Counter-ions that a name gives are not always drawn.
How the values were obtained:
[1] = target: T1, DPP IV (Rattus norvegicus, UniProt P14740); test: Measuring DPP IV inhibition (rat plasma, fluorogenic peptide substrate); assay type: biochemical; conditions: substrate H-Gly-Pro-alpha methyl coumarin, 30 min, room temp
T1 construct: Add 25 uL of rat plasma or buffer to wells; from tissue; host or cells: rat plasma
Description: Dilute 1 volume of rat plasma ([…] with sodium citrate) to 2.5 volumes assay buffer (25 mM HEPES, 140 mM NaCl, 1% BSA [added on the day of the assay]; pH 7.8) to yield approximately 350 micrograms total protein/well in a 96-well plate. […] Dilute the peptide substrate (H-Gly-Pro-alpha methyl coumarin, 10 mM stock in 100% DMSO) 1:100 in assay buffer. Compounds of this invention are diluted in 100% DMSO. Add 10 microliter of diluted compounds or DMSO vehicle to wells. Add 25 uL of rat plasma or buffer to wells. Add 25 uL MgCl2 to all wells. Vortex gently for 1 minute, then pre-incubate at room temp for 10 minutes. Start the reaction by adding 50 uL peptide substrate (no vortexing), and incubate the plate at room temp in the dark for 30 minutes. […] Read the plate at 380 nm (excitation) and 460 nm (emission).

[2] = test system: MPTP-lesioned mouse model of Parkinson's disease; test: In vivo reinnervation of the denervated striatum by nigrostriatal dopaminergic fibers (MPTP-lesioned mouse model of Parkinson's disease); conditions: CD1 mice, MPTP 34 mg/kg i.p. days 1-5; compound 10 mg/kg s.c. once daily days 1-5; analysis day 7
Source text: MPTP (N-methyl-4-phenyl-1,2,3,6-tetrahydropyridine) is a systemically available neurotoxin specific to nigrostriatal dopaminergic neurons, i.e. to the cells that degenerate in human Parkinson's disease. Administration of MPTP to mice leads to a selective partial destruction of the mesotelencephalic dopaminergic projection, and to a loss of dopamine and dopaminergic fibres in the corpus striatum, which is the main forebrain target of midbrain dopaninergic neurons.
Young adult male CD1 albino mice (Harlan-Sprague Dawley; 22-25 g) were dosed i.p. with the dopamine cell-specific neurotoxin N-methyl-4-phenyl-1,2,3,6-tetrahydropyridine (MPTP hydrochloride, calculated as 34 mg/kg free base), dissolved in saline at a concentration of 3.4 mg/ml free base once daily on days one to five. […]
Blinded analysis of TH fiber density in the central striatum was performed at 630× magnification. […] The percentage of sample field covered by TH positive processes and terminals was calculated using an image analysis program (“Simple,” Compix Inc., Pittsburgh, Pa.). The mean striatal innervation density was calculated for each group. The magnitude of striatal deafferentation due to the MPTP lesion was assessed by dividing the observed striatal innervation values obtained in MPTP/vehicle treated cases by the mean striatal innervation density in the Vehicle/Vehicle group and expressed as % loss. […]

T1 sequence (P14740 37-767 limits assumed): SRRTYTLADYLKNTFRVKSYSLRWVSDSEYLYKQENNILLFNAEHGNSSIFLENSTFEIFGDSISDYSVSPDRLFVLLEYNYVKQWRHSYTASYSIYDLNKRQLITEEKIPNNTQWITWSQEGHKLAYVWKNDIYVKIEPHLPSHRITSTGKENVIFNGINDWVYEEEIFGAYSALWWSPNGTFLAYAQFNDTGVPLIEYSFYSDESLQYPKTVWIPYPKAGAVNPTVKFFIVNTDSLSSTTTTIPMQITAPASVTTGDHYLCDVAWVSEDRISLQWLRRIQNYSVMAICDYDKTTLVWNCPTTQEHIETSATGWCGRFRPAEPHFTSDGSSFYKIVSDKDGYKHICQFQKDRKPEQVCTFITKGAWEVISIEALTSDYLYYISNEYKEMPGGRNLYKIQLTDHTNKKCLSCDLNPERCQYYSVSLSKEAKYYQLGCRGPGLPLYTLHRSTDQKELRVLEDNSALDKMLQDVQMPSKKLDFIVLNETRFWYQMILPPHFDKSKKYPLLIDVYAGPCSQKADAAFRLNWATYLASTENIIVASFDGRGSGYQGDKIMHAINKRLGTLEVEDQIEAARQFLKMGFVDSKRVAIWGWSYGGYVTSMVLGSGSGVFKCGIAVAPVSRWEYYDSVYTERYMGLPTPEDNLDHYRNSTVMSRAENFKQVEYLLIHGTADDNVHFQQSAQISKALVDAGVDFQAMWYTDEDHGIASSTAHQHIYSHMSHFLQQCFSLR

SMILES	IC50 [1]	% protection of striatal tyrosine hydroxylase-immunoreactive fibres [2]
Cl.N#CC1CCCN1C(=O)C1CC2CCCCC2N1 (centres unmarked) [Example 1, 1-(octahydroindole-2-carbonyl)pyrrolidine-2-carbonitrile hydrochloride]	13.9 nM	32.5%
N#C[C@@H]1CCCN1C(=O)[C@H]1NCC2CCCCC21 (some centres unmarked) [Example 4, 2-(L)-Cyano-(octahydro-isoindolyl)pyrrolidine hydrogen chloride]	551 nM	
O=C(C1CC2CCCCC2N1)N1CCCC1 (centres unmarked) [Example 10, 1-(octahydroindole-2-carbonyl)pyrrolidine hydrochloride]	10000 nM	
O=C(CNC12CC3CC(CC(C3)C1)C2)N1CCSC1 [Example 12, 1-[2-(adamant-1-ylamino)acetyl]-3-thiopyrrolidine]	4820 nM	
CCC(C)[C@H](N)C(=O)N1CC(F)C[C@H]1C#N (some centres unmarked) [Example 13, 2-cyano-4-fluoro-1-(sec-butyl)glycylpyrrolidine hydrogen chloride]	6.2 nM	
Cl.N#CC1CCN1C(=O)C1CC2CCCCC2N1 (centres unmarked) [Example 20, 1-(octahydroindole-2-carbonyl)azetidine-2-carbonitrile hydrochloride]	178 nM	32.6%

Continued, in another order:

IC50 [1]	SMILES	% protection of striatal tyrosine hydroxylase-immunoreactive fibres [2]
60.7 nM	N#CC1CCCN1C(=O)C1NCC2CC21 (centres unmarked) [Example 2, 1-(3-azabicyclo[3.1.0]hexane-2-carbonyl)pyrrolidine-2-carbonitrile hydrochloride]	
1.65 nM	N#CC1CC(F)CN1C(=O)C1CC2CCCCC2N1 (centres unmarked) [Example 3, 2-cyano-4-fluoro-1-(octahydroindole-2-carbonyl)-pyrrolidine hydrogen chloride]	
3.8 nM	N#CC1CSCN1C(=O)C1CC2CCCCC2N1 (centres unmarked) [Example 5, 3-(octahydroindole-2-carbonyl)thiazolidine4-carbonitrile hydrochloride]	
1880 nM	N[C@H](C(=O)N1CC=CC1)C1CCCCC1 [Example 6, 1-(L-α-cyclohexylglycyl)-3-pyrroline hydrogen chloride]	
22200 nM	N[C@H](C(=O)N1CCCCC1)C1CCCCC1 [Example 8, 1-(L-α-cyclohexylglycyl)piperidine hydrogen chloride]	
6.5 nM	N#C[C@@H]1CC(F)CN1C(=O)C(N)C1CCCCC1 (some centres unmarked) [Example 14, 2-Cyano-4-fluoro-1-cyclohexylglycylpyrrolidine hydrogen chloride]	
1200 nM	N#CC1CCN1C(=O)C(N)C1CCCCC1 (centres unmarked) [Example 16, 1-(2-amino-2-cyclohexyl-acetyl)azetidine-2-carbonitrile]	
1100 nM	N#CC1CCN1C(=O)C1CCCN1 (centres unmarked) [Example 17, 1-(pyrrolidine-2-carbonyl)azetidine-2-carbonitrile]	
223 nM	N#CC1CCN1C(=O)CNC12CC3CC(CC(C3)C1)C2 (centres unmarked) [Example 18, 1-[2-(adamant-1-ylamino)acetyl]-azetidine-2-carbonitrile]	

Source: patent publication US20050070719A1, “Inhibitors of dipeptidyl peptidase iv” (priority 2001, published 2005)
